The source of these data is US20240400521A1, “QUINAZOLINE COMPOUND, COMPOSITION, AND APPLICATION THEREOF” (BEIJING SCITECH-MQ PHARMACEUTICALS LIMITED, priority 2021, published 2024).

The target in one experiment is T1, EGFR^WT kinase (Homo sapiens, UniProt P00533).
T1 construct: purchased Carna Biosciences 08-115
Put plainly: EGFR^WT kinase assay (ULight peptide / Eu-PT66 antibody detection). The format is biochemical. The text has this:
(§1) Reagents and consumables: ULight™-labeled Ploy GT Peptide (Perkin Elmer, Cat. No. TRF-0100-M); ULight™-labeled JAK-1 (Try1023) Peptide (Perkin Elmer, Cat. No. TRF-0121-M); Eu-W1024-labeled Anti-Phosphotyrosine Antibody (PT66) (Perkin Elmer, Cat. No. AD0068); 10×Detection Buffer (Perkin Elmer, Cat. No. CR97-100); HER2 Kinase (Carna Biosciences, Cat. No. 08-016); EGFR kinase (Carna Biosciences, Cat. No. 08-115); HEPES (GIBCO, Cat. No. 15630-080); EGTA (Sigma, Cat. No. 03777-10G); EDTA (Sigma, Cat. No. EDS-100G); MgCl2 (Sigma, Cat. No. 63069-100ML); DTT (Sigma, Cat. No. 43816-10ML); Tween-20 (Sigma, Cat. No. P7949-100ML); DMSO (Life Science, Cat. No. 0231-500ML); 384-well plates (Perkin Elmer, Cat. No. 607290); multifunctional plate reader (Perkin Elmer, Cat. No. Envision)
(§2) Preparation of compound solution: The assay compound was dissolved in DMSO to form a 10 mM stock solution. Prior to use, the compound was diluted to 0.25 mM in DMSO (100 times the final concentration of the diluent) and then subjected to a 3-fold concentration gradient dilution to obtain a total of 11 concentrations. The solution was diluted with buffer to a diluent with 4× the final concentration when the drug was added.
(§3) EGFR^WT kinase assay: buffer was prepared, and 3.48 nM 4× EGFR kinase solution, 600 μM 4× ATP solution, and 400 nM 4×ULight™-labeled JAK-1 (Try1023) Peptide substrate solution was prepared using the buffer. After the preparation was completed, the enzyme was mixed with different concentrations of compounds pre-prepared by dilution, and the mixture was left to stand at room temperature for 5 min. Each concentration was performed in duplicate. The corresponding substrate and ATP were added and the mixture was reacted at room temperature for 120 minutes (with negative and positive controls). After completion of the reaction, PT66 detection antibody was added. The mixture was incubated at room temperature for 60 minutes, and then detected by Envision.
(§4) Data Calculation: the reading of well and inhibition rate were calculated using Excel, wherein reading of well=10000*(well EU665 value)/(well EU615 value), and inhibition rate=[(reading of positive control well−reading of assay well)/(reading of positive control well−reading of negative control well)]*100%. Compound concentrations and corresponding inhibition rates were input into GraphPad Prism for processing to calculate IC50 values.

A further experiment addresses T2, HER2 kinase (Homo sapiens, UniProt P04626).
T2 construct: purchased Carna Biosciences 08-016
Put plainly: HER2 kinase assay (ULight peptide / Eu-PT66 antibody detection). The format is biochemical.
Description: as §1, §2
as §3, with “HER2 kinase” for “EGFR^WT kinase”, “and 40” for “and 3.48”, “4× HER2” for “4× EGFR”, “solution, 40” for “solution, 600”, “4×ULight™-labeled Ploy GT” for “4×ULight™-labeled JAK-1 (Try1023)”, “solution were” for “solution was”
as §4

In a further experiment the test system is HCC-827 cells. Put plainly: Inhibition of cell proliferation, CTG method, HCC-827. The format is cell-based. Conditions: Homo sapiens, HCC827, 72 hours. The source says: (§5) The present application examined the in vitro anti-proliferative activity of the compounds of the present disclosure against in vitro cultured HCC-827, Ba/F3-EGFR-VIII and Ba/F3 EGFR D770_N771insSVD cell lines by CTG method.
(§6) Reagents and consumables: RPMI1640 (ThermoFisher, Cat. No. C11875500BT); DMEM (ThermoFisher, C11995500BT); fetal bovine serum (Hyclone, Cat. No. SV30087.03); 0.25% trypsin-EDTA (ThermoFisher, Cat. No. 25200072); penicillin-streptomycin (Hyclone, Cat. No. SV30010); DMSO (Life Science, Cat. No. 0231-500ML); CTG assay kit (Promega, Cat. No. G9243); 96-well plate (Corning, Cat. No. 3599); multifunctional plate reader (Perkin Elmer, Cat. No. Envision)
(§7) Cell lines: HCC-827 (from ATCC), Ba/F3-EGFR-VIII and Ba/F3 EGFR D770_N771insSVD (all from KYinno Biotechnology (Beijing) Co., Ltd.); all of the above cells were cultured with RPMI1640 medium containing 10% fetal bovine serum, 100 U/mL penicillin, and 100 μg/mL streptomycin in the culture process, and HCC-827 was cultured with DMEM medium containing 10% fetal bovine serum, 100 U/mL penicillin, and 100 μg/mL streptomycin.
(§8) • 1. The assay compound was dissolved with DMSO to form a stock solution and a gradient dilution was performed, followed by dilution with the corresponding medium to obtain a solution with 5-fold working concentration. • 2. Cells in logarithmic growth phase were adjusted to specific cell densities by dilution with culture medium, and 80 μL of cell suspension was added to a 96-well plate, such that plating densities of cells of HCC-827, Ba/F3-EGFR-VIII and Ba/F3 EGFR D770_N771insSVD were all 3000 cells/well. The cells of Ba/F3-EGFR-VIII and Ba/F3 EGFR D770_N771insSVD were used directly in the next step (treatment with compound), whereas the HCC-827 needed to be cultured overnight in a 37° C., 5% carbon dioxide gas incubator to adhere to the wall, and then treated with compounds. • 3. 20 μL of compound solution was added to each well of the 96-well plate that had been inoculated with cells. The highest concentration of the assayed compound was 10 μM, 4-fold serial dilution, a total of 9 concentrations, and duplicate wells. A control group without compound was also set up. • 4. The cells were cultured for another 72 hours, and then cell viability was detected by CTG assay kit. Signal values were read with a multifunctional plate reader (Perkin Elmer). GraphPad Prism software was used to create a dose-response curve and IC50 was calculated.

Experiment [1] has as its target Ba/F3 EGFR D770_N771insSVD cells (Homo sapiens, UniProt P00533, DUP768-770, cells depend on it). The experiment is described as follows: Inhibition of cell proliferation, CTG method, Ba/F3 EGFR D770_N771insSVD. Format: cell-based. Conditions: 72 hours, read-out: Ba/F3 EGFR D770_N771insSVD IC50.
Description: as §5, §6, §7, §8

Another experiment has as its target Ba/F3-EGFR-VIII cells (Homo sapiens, UniProt P00533, DELINS30-297G, cells depend on it). The experiment is described as follows: Inhibition of cell proliferation, CTG method, Ba/F3-EGFR-VIII. The format is cell-based. Conditions: 72 hours, read-out: Ba/F3 EGFRvIII IC50.
Description: as §5, §6, §7, §8

For orientation: IC50 means the concentration at which inhibition is half-maximal. A higher IC50 goes with a need for much substance.

T2 sequence (P04626 23-1255): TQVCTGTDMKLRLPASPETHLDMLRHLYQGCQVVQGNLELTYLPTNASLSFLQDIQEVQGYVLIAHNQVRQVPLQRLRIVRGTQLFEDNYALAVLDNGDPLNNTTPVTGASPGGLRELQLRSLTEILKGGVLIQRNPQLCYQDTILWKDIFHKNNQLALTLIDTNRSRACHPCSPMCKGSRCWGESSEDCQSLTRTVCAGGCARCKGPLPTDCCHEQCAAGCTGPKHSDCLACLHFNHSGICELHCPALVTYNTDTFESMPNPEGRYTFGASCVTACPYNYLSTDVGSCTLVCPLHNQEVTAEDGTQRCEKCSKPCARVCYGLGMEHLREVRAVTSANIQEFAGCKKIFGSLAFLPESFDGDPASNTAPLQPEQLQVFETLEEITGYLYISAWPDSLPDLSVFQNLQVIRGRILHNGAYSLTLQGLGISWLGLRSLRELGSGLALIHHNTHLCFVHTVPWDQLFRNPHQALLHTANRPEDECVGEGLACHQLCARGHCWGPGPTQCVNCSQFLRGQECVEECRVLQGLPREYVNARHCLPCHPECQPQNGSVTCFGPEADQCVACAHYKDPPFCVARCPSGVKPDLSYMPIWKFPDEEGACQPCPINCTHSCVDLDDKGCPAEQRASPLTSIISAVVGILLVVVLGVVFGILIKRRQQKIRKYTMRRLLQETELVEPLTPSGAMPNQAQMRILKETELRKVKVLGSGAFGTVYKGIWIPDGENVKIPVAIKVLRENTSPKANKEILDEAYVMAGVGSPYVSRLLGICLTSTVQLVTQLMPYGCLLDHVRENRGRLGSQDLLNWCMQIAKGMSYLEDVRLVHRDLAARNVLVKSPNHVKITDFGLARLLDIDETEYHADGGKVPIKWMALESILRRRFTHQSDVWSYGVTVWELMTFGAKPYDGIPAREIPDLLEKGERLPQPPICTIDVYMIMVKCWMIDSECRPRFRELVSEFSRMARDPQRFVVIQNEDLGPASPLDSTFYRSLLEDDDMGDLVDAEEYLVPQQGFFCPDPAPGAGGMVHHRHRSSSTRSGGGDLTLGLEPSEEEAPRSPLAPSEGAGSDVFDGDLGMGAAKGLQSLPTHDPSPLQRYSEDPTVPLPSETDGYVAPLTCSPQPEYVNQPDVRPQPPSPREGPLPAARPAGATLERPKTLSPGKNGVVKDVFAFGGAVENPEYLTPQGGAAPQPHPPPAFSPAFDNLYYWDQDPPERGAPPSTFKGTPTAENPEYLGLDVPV
Chain of Ba/F3-EGFR-VIII cells (P00533 with tags, fused parts or gaps DELINS30-297G): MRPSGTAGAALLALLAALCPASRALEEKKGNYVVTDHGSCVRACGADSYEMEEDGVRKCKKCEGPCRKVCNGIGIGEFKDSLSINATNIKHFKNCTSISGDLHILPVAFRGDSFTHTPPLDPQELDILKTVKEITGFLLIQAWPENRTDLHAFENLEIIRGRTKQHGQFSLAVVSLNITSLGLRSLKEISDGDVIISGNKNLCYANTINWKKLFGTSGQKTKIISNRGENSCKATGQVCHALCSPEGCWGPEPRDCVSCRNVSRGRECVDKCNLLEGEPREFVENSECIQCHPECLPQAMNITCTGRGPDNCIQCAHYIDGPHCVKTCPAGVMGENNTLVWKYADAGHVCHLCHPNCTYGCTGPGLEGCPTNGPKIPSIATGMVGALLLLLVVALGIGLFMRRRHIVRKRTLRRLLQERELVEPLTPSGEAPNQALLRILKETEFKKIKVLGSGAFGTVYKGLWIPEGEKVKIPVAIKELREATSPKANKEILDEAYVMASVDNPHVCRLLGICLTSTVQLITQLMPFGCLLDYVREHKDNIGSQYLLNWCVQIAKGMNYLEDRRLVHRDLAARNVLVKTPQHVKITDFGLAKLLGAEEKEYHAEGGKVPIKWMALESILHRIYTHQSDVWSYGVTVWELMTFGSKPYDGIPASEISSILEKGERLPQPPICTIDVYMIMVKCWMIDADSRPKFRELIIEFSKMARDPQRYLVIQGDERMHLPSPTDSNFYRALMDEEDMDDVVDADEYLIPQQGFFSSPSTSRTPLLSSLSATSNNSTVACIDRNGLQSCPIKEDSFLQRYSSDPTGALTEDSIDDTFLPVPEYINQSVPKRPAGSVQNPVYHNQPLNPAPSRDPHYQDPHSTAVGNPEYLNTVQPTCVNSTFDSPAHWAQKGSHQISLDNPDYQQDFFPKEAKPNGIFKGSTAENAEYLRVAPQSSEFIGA
T1 sequence (P00533 25-1210): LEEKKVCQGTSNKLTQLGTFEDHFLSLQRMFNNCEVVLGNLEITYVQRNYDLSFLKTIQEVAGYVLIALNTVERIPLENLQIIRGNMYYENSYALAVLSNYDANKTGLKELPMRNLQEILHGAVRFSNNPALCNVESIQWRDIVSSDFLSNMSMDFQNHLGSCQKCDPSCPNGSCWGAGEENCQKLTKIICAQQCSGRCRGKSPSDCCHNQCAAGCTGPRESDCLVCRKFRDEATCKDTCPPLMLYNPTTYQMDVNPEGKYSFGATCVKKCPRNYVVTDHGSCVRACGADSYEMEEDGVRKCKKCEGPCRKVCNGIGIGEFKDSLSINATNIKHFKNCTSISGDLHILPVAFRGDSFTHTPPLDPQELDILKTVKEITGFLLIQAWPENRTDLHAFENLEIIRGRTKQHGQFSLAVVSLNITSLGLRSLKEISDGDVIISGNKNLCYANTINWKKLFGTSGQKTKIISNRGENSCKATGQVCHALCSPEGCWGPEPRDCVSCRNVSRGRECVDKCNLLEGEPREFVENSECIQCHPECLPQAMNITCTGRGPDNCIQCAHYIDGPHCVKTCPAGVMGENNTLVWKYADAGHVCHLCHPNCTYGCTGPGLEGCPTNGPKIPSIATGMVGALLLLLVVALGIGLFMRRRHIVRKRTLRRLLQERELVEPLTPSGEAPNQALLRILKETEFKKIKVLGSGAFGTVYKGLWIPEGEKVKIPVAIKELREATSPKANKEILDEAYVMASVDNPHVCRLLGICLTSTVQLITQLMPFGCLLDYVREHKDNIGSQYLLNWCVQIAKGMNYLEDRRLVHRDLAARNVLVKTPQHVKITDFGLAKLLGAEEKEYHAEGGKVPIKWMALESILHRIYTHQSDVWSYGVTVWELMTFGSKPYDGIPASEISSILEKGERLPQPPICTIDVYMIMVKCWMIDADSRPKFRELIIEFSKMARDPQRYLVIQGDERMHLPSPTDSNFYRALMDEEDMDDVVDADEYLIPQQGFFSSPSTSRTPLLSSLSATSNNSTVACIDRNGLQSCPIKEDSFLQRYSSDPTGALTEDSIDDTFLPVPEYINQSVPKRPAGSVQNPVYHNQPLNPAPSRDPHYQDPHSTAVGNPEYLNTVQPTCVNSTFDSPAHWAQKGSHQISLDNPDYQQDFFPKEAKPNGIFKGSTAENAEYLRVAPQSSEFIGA
Chain of Ba/F3 EGFR D770_N771insSVD cells (P00533 with tags, fused parts or gaps DUP768-770): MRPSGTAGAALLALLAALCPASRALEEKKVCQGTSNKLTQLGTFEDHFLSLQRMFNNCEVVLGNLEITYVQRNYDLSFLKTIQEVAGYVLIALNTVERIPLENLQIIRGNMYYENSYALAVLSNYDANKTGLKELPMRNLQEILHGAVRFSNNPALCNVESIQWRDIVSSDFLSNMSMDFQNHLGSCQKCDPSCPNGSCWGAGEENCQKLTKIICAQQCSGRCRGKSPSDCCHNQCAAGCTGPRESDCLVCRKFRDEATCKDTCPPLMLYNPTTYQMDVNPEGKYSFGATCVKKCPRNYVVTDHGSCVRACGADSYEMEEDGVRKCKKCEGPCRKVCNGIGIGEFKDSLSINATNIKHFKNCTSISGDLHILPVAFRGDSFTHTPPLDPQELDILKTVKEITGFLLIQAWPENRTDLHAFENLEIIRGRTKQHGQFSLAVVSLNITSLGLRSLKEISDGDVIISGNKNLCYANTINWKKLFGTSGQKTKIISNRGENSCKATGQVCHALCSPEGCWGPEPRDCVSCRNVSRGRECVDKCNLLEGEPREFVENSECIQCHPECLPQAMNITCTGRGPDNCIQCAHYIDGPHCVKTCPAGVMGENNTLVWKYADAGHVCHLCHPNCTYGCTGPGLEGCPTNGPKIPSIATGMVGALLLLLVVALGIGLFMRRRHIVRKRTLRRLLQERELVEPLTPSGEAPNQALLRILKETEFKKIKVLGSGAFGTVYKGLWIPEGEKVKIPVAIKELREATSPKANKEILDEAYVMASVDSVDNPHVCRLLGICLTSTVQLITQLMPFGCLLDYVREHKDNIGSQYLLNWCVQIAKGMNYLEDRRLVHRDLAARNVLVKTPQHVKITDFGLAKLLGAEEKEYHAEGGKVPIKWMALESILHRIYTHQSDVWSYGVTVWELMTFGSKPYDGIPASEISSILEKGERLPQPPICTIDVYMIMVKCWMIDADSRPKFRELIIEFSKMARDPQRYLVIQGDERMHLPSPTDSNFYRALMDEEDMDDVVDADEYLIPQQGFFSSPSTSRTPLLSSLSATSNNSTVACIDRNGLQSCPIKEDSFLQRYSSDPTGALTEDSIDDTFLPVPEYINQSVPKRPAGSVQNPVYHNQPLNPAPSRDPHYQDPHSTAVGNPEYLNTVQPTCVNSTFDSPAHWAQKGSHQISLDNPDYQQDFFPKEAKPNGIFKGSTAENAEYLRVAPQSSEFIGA

On to `CN(C)C/C=C/C(=O)Nc1ccc2ncnc(Nc3cccc(Cl)c3F)c2c1OCCF` [Example 4, (E)-N-(4-((3-chloro-2-fluorophenyl)amino)-5-(2-fluoroethoxy)quinazolin-6-yl)-4-(dimethylamino)but-2-enamide], for which the IC50 on EGFR^WT kinase is not above 1 nM; at HER2 kinase it was 10 to 100 nM; in the experiment with HCC-827 cells, not above 5 nM. Moreover, the GI50 was 50 to 500 nM in experiment [1] and 5 to 50 nM on Ba/F3-EGFR-VIII cells.

`CN(C)C/C=C/C(=O)Nc1ccc2ncnc(Nc3cccc(Cl)c3F)c2c1OCCO` [Example 5, (E)-N-(4-((3-chloro-2-fluorophenyl)amino)-5-(2-hydroxyethoxy)quinazolin-6-yl)-4-(dimethylamino)but-2-enamide]: the IC50 on EGFR^WT kinase was not above 1 nM; against HER2 kinase, 10 to 100 nM; with HCC-827 cells it was not above 5 nM. In addition, the GI50 in experiment [1] was 5 to 50 nM; at Ba/F3-EGFR-VIII cells, not above 5 nM.

Take `COCCCOc1c(NC(=O)/C=C/CN(C)C)ccc2ncnc(Nc3cccc(Cl)c3F)c12` [Example 6, (E)-N-(4-((3-chloro-2-fluorophenyl)amino)-5-(3-methoxypropoxy)quinazolin-6-yl)-4-(dimethylamino)but-2-enamide]: the IC50 against EGFR^WT kinase is not above 1 nM; against HER2 kinase, 100 to 1000 nM; in the experiment with HCC-827 cells, not above 5 nM. Also, the GI50 in experiment [1] was in the range of 50 to 500 nM; on Ba/F3-EGFR-VIII cells, 5 to 50 nM.

For the compound `COc1c(NC(=O)/C=C/CN(C)C(C)C)ccc2ncnc(Nc3cccc(Cl)c3F)c12` [Example 8, (E)-N-(4-((3-chloro-2-fluorophenyl)amino)-5-methoxyquinazolin-6-yl)-4-(isopropyl(methyl)amino)but-2-enamide], the results for the IC50 against EGFR^WT kinase, against HER2 kinase and with HCC-827 cells were not above 1 nM, 10 to 100 nM and not above 5 nM, respectively. Also, the GI50 in experiment [1] lay within 50 to 500 nM; on Ba/F3-EGFR-VIII cells it was 5 to 50 nM.

Consider `COc1c(NC(=O)/C=C/CNC(C)C)ccc2ncnc(Nc3cccc(Cl)c3F)c12` [Example 9, (E)-N-(4-((3-chloro-2-fluorophenyl)amino)-5-methoxyquinazolin-6-yl)-4-(isopropylamino)but-2-enamide], for which the results for the IC50 on EGFR^WT kinase, on HER2 kinase and with HCC-827 cells were not above 1 nM, 10 to 100 nM and not above 5 nM, respectively. Moreover, the GI50 in experiment [1] is 5 to 50 nM; on Ba/F3-EGFR-VIII cells, not above 5 nM.

As to `CC(C)Oc1c(NC(=O)/C=C/CN(C)C)ccc2ncnc(Nc3cccc(Cl)c3F)c12` [Example 10, (E)-N-(4-((3-chloro-2-fluorophenyl)amino)-5-isopropoxyquinazolin-6-yl)-4-(dimethylamino)but-2-enamide], the IC50 against EGFR^WT kinase lay in the range of 1 to 10 nM; on HER2 kinase, 100 to 1000 nM; with HCC-827 cells, 5 to 50 nM. The GI50 (in experiment [1]; on Ba/F3-EGFR-VIII cells) was 50 to 500 nM throughout.

Take `CN(C)C/C=C/C(=O)Nc1ccc2ncnc(Nc3cccc(Cl)c3F)c2c1OCCCO` [Example 11, (E)-N-(4-((3-chloro-2-fluorophenyl)amino)-5-(3-hydroxypropoxy)quinazolin-6-yl)-4-(dimethylamino)but-2-enamide]: the IC50 at EGFR^WT kinase was not above 1 nM; on HER2 kinase, 100 to 1000 nM; in the experiment on HCC-827 cells it was not above 5 nM. Further, the GI50 in experiment [1] was 50 to 500 nM; at Ba/F3-EGFR-VIII cells, not above 5 nM.

On to `CN(C)C/C=C/C(=O)Nc1ccc2ncnc(Nc3cccc(Cl)c3F)c2c1OCC(C)(C)O` [Example 13, (E)-N-(4-((3-chloro-2-fluorophenyl)amino)-5-(2-hydroxy-2-methylpropoxy)quinazolin-6-yl)-4-(dimethylamino)but-2-enamide], for which the IC50 against EGFR^WT kinase was not above 1 nM; at HER2 kinase, 10 to 100 nM; in the experiment on HCC-827 cells it was not above 5 nM. Besides, the GI50 in experiment [1] is 50 to 500 nM; on Ba/F3-EGFR-VIII cells, not above 5 nM.

For the compound `CN(C)C/C=C/C(=O)Nc1ccc2ncnc(Nc3cccc(Cl)c3F)c2c1OCCC(C)(C)O` [Example 14, (E)-N-(4-((3-chloro-2-fluorophenyl)amino)-5-(3-hydroxy-3-methylbutoxy)quinazolin-6-yl)-4-(dimethylamino)but-2-enamide], the values for the IC50 on EGFR^WT kinase, on HER2 kinase and with HCC-827 cells were 1 to 10 nM, 10 to 100 nM and not above 5 nM, respectively. For the same compound, the GI50 in experiment [1] fell in the range of 50 to 500 nM; on Ba/F3-EGFR-VIII cells it was 5 to 50 nM.

On to `CN(C)C/C=C/C(=O)Nc1ccc2ncnc(Nc3cccc(Cl)c3F)c2c1OCCCF` [Example 15, (E)-N-(4-((3-chloro-2-fluorophenyl)amino)-5-(3-fluoropropoxy)quinazolin-6-yl)-4-(dimethylamino)but-2-enamide], for which the IC50 against EGFR^WT kinase is not above 1 nM; against HER2 kinase it was 10 to 100 nM; in the experiment with HCC-827 cells, not above 5 nM. For the same compound, the GI50 in experiment [1] fell in the range of 50 to 500 nM; on Ba/F3-EGFR-VIII cells, 5 to 50 nM.

For `CN(C)C/C=C/C(=O)Nc1ccc2ncnc(Nc3cccc(Cl)c3F)c2c1OCC(F)(F)F` [Example 16, (E)-N-(4-((3-chloro-2-fluorophenyl)amino)-5-(2,2,2-trifluoroethoxy)quinazolin-6-yl)-4-(dimethylamino)but-2-enamide], the IC50 against EGFR^WT kinase was not above 1 nM; against HER2 kinase, 10 to 100 nM; in the experiment with HCC-827 cells, not above 5 nM. The values for the GI50 (in experiment [1]; at Ba/F3-EGFR-VIII cells) were 50 to 500 nM and 5 to 50 nM, respectively.

Regarding `CN(C)C/C=C/C(=O)Nc1ccc2ncnc(Nc3cccc(Cl)c3F)c2c1OCC(F)F` [Example 17, (E)-N-(4-((3-chloro-2-fluorophenyl)amino)-5-(2,2-difluoroethoxy)quinazolin-6-yl)-4-(dimethylamino)but-2-enamide], the IC50 against EGFR^WT kinase is not above 1 nM; against HER2 kinase, 100 to 1000 nM; in the experiment on HCC-827 cells it was not above 5 nM. Also, the GI50 in experiment [1] fell in the range of 50 to 500 nM; on Ba/F3-EGFR-VIII cells, 5 to 50 nM.
